Source: ChEMBL document CHEMBL4627369, “Synthesis of novel of 2, 5-disubstituted 1, 3, 4- oxadiazole derivatives and their in vitro anti-inflammatory, anti-oxidant evaluation, and molecular docking study” (Bioorg Med Chem Lett, 2020)
pIC50: −log10 of the molar value.

What was measured:
[1] = Antioxidant activity assessed as DPPH radical scavenging activity; type: functional
[2] = Antioxidant activity assessed as nitric oxide radical scavenging activity; type: functional

| pIC50 [1] | pIC50 [2] | Structure (SMILES) |
| --- | --- | --- |
| 4.77 | 4.07 | Fc1ccc2c(c1)CCC(c1nnc(-c3ccc(Cl)cc3)o1)O2 (stereo unspecified) |
| 4.54 | 4.07 | Fc1ccc2c(c1)CCC(c1nnc(-c3ccccc3)o1)O2 (stereo unspecified) |
| 4.54 | 4.07 | Fc1ccc2c(c1)CCC(c1nnc(-c3cc(F)c(F)c(F)c3F)o1)O2 (stereo unspecified) |
| 4.36 | 4.06 | COc1cc(-c2nnc(C3CCc4cc(F)ccc4O3)o2)cc(OC)c1OC (stereo unspecified) |
| 4.64 | 4.06 | Fc1ccc2c(c1)CCC(c1nnc(-c3cn(Cc4c(F)cccc4F)nn3)o1)O2 (stereo unspecified) |
| 4.54 | 4.07 | O=[N+]([O-])c1ccc(-c2nnc(C3CCc4cc(F)ccc4O3)o2)cc1 (stereo unspecified) |
| 4.64 | 4.07 | Fc1ccc2c(c1)CCC(c1nnc(-c3cccc(Cl)c3)o1)O2 (stereo unspecified) |
| 4.13 | 4.06 | Fc1ccc2c(c1)CCC(c1nnc(-c3cnccn3)o1)O2 (stereo unspecified) |
| 4.46 | 4.05 | Nc1ccc(-c2nnc(C3CCc4cc(F)ccc4O3)o2)cc1 (stereo unspecified) |
| 4.54 | 4.06 | Fc1ccc2c(c1)CCC(c1nnc(C3CCc4cc(F)ccc4O3)o1)O2 (stereo unspecified) |
| 4.46 | 4.13 | O=c1cc(-c2nnc(C3CCc4cc(F)ccc4O3)o2)oc2ccc(F)cc12 (stereo unspecified) |
| 4.39 | 4.06 | Fc1ccc2c(c1)CCC(c1nnc(-c3ccccc3Cl)o1)O2 (stereo unspecified) |
| 4.35 | 4.37 | O=C1O[C@H]([C@@H](O)CO)C(O)=C1O [ASCORBIC ACID] |
